{"source": "patent US20240166639A1", "about": "“POTENT AND SELECTIVE COMPOUNDS AS SEROTONIN 1B RECEPTOR MODULATORS” (LEUKOS BIOTECH, S.L., priority 2020, published 2024)", "key": {"human 5-HT1B receptor": {"target": "human 5-HT1B receptor (Homo sapiens (Human), UniProt P28222)", "sequence (P28222 whole entry)": "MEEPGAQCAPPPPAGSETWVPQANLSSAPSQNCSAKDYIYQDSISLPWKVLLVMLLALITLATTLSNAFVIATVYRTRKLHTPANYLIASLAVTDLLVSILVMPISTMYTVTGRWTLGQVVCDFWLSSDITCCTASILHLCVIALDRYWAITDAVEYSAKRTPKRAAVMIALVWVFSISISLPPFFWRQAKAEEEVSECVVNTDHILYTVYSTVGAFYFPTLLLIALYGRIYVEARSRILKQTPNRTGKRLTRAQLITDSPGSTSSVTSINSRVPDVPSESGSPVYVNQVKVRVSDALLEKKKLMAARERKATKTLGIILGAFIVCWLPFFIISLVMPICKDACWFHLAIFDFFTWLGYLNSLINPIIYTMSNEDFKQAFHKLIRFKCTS", "assay": "Competition binding in human 5-HT1B receptor", "conditions": "[3H]-GR125743, Hela-5-HT1B membranes; read-out: h5-HT1B Ki", "experimental": "Serotonin 5-HT1B receptor competition binding experiments were carried out in a polypropylene 96-well plate. In each well was incubated 5 μg of membranes from Hela-5-HT1B cell line prepared in the laboratory (Lot: A001/14-11-2011, protein concentration=3179 μg/ml), 1.5 nM [^3H]-GR125743 ([…], 0.1 mCi/ml, Perkin Elmer NET1172100UC) and compounds studied and standard. Non-specific binding was determined in the presence of GR55562 10 μM (TOCRIS 1054). The reaction mixture (Vt: 250 μl/well) was incubated at 25° C. for 90 min, 200 μL was transfered to GF/C 96-well plate (Millipore, Madrid, Spain) pretreated with 0.5% of PEI and treated with binding buffer (Tris-HCl 50 mM, EDTA 1 mM, MgCl2 10 mM, pH=7.4), after was filtered and washed four times with 250 μl wash buffer (Tris-HCl 50 mM, pH=7.4), before measuring in a microplate beta scintillation counter (Microbeta Trilux, PerkinElmer, Madrid, Spain). […] From the IC50 the Ki is calculated according to the following formula: […]\n(§1) Being: • IC50: inhibitory concentration, • D: real concentration of radioligand and • Kd: dissociation constant (affinity of radioligand to the receptor)."}, "[1]": {"system": "peripheral blood-mononuclear blood cells", "assay": "Healthy blood cells viability assay", "type": "cell-based", "conditions": "48 h treatment, read-out: EC50 (uM), cytotoxic capacity on healthy cells", "experimental": "0.5×10^6 peripheral blood-mononuclear blood cells per mL were cultured in completed RPM medium, supplemented with 10% FBS. Compounds were added to the medium at 0.5/1/5/10/50 μM, while controls were treated with equivalent concentration of vehicle (DMSO). Upon 48 h treatment, cells were stained with the live-dead discrimination dye 7-AAD and Hoechst 33342, the pan-hernatopoietic surface marker CD45, and acquired in a flow cytometer, with a volumetric counting. Live cells were discriminated based on a discrete FSC-SSC profile, 7-AAD negativity, dim positivity to Hoechst 33342 and CD45 positivity. EC50 was calculated with the Prism GraphPad software."}, "human 5-HT2A receptor": {"target": "human 5-HT2A receptor (Homo sapiens (Human), UniProt P28223)", "sequence (P28223 whole entry)": "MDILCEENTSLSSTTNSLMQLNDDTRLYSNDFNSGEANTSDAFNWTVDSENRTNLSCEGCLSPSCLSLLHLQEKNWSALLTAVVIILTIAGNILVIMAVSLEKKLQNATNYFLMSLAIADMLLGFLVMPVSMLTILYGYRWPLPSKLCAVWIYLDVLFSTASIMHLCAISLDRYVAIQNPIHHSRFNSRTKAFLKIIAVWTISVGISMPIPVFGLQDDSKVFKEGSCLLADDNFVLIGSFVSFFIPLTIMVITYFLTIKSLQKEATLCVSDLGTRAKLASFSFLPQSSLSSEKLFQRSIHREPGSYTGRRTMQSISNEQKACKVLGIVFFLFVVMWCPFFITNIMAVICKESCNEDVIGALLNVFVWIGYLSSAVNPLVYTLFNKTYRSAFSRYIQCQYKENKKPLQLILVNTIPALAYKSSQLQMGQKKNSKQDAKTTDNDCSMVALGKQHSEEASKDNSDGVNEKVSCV", "assay": "Competition binding in human 5-HT2A receptor", "conditions": "[3H]-Ketanserin, CHO-5-HT2A membranes; read-out: h5-HT2A Ki", "experimental": "Serotonin 5-HT2A receptor competition binding experiments were carried out in a polypropilene 96-well plate. In each well was incubated 80 μg of membranes from CHO-5-HT2A cell line prepared in the laboratory (protein concentration=4337 μg/ml), 1 nM [^3H]-Ketanserin (47.3 Ci/mmol, 1 mCi/ml, Perkin Elmer NET791250UC) and compounds studied and standard. Non-specific binding was determined in the presence of Methysergide 1 μM (Sigma M137). The reaction mixture (Vt: 250 μl/well) was incubated at 37° C. for 30 min, 200 μL was transfered to GF/B 96-well plate (Millipore, Madrid, Spain) pretreated with 0.5% of PEI and treated with binding buffer (Tris-HCl 50 mM, pH=7.4), after was filtered and washed six times with 250 μl wash buffer (Tris-HCl 50 mM, pH=6.6), before measuring in a microplate beta scintillation counter (Microbeta Trilux, PerkinElmer, Madrid, Spain).\nThe raw radioactivity data is adjusted to a logistic regression of 4 parameters using GraphPad Prism software, from the specific junction the value of IC50 is obtained. From the IC50 the Ki is calculated according to the following formula: […]\nas §1"}, "MonoMac-1": {"system": "MonoMac-1", "assay": "Cell viability assay, AML cell line MonoMac-1", "type": "cell-based", "conditions": "48 h treatment, live cells by flow cytometry", "experimental": "(§2) 0.15×10^6 AML cell lines (HL-60 or MonoMac-1) per mL were cultured in completed RPMI medium, supplemented with 10% Fetal bovine serum (FBS). Compounds were added to the medium at the concentration indicated (0.1, 1 and 10 μM), while controls were treated with equivalent concentration of vehicle (DMSO). Primary validation screenings were analyzed after 72 h of treatment, EC50 was determined upon 48 h treatments. Cells were stained with the live-dead discrimination dye 7-aminoactinomycin D (7-AAD) and Hoechst 33342 and acquired in a flow cytometer, with a volumetric counting. Live cells were discriminated based on a discrete FSC-SSC profile, 7-AAD negativity and dim positivity to Hoechst 33342. EC50 was calculated with the Prism GraphPad software."}, "HL-60": {"system": "HL-60", "assay": "Cell viability assay, AML cell line HL-60", "type": "cell-based", "conditions": "48 h treatment, live cells by flow cytometry", "experimental": "as §2"}}, "note": "Where a name gives a salt, the structure may show the parent alone."}
{"smiles": "COc1ccc(NC(=O)c2ccc(-c3ccc(-c4noc(C)n4)cc3C)cc2)cc1OCCN(C)C", "note": "[SB41, N-[3-[3-(Dimethylamino)ethoxy]-4-methoxyphenyl]-2′-methyl-4′-(5-methyl-1,2,4-oxadiazol-3-yl)-[1,1′-biphenyl]-4-carboxamide hydrochloride, reference compound]", "values": [{"measurement": "Ki", "setting": "human 5-HT1B receptor", "result": 0.0006, "unit": "µM"}, {"measurement": "EC50", "setting": "[1]", "result": 12.5, "unit": "µM"}, {"measurement": "Ki", "setting": "human 5-HT2A receptor", "result": 0.143, "unit": "µM"}, {"measurement": "EC50", "setting": "MonoMac-1", "result": 2.48, "unit": "µM"}, {"measurement": "EC50", "setting": "HL-60", "result": 7.32, "unit": "µM"}]}
